Earlier results as cited in patent US20060172368A1, “CGT1 as an antifungal target” (priority 2002, published 2006).

Conditions: mice, DOX 2 mg/ml in 5% sucrose as drinking water, approx. 5 ml per day

SMILES: C[C@H]1c2cccc(O)c2C(=O)C2=C(O)[C@]3(O)C(=O)C(C(N)=O)=C(O)[C@@H](N(C)C)[C@@H]3[C@@H](O)[C@@H]21 [doxycycline]
- concentration of DOX in serum: more than 2 mg/ml of serum
